What was measured:
[1] = tested on: CD31/PECAM (microvessel density); assay: Microvessel density by CD31 staining of tumor sections; type: in vivo, nude mice; details: weekly i.v. injections
Procedure: Frozen tissues were sectioned into 8- to 10-μm slices and used for detection of CD31/platelet/endothelial cell adhesion molecule 1 (CD31/PECAM). The slices were mounted on positively charged Plus slides (Fisher Scientific, Pittsburgh, Pa.) and air-dried for 30 minutes; fixed sequentially in cold acetone (5 minutes), 1:1 acetone/chloroform (v/v; 5 minutes), and acetone (5 minutes), and then washed with PBS. Immunohistochemical procedures were done as described previously with the primary antibody diluted 1:400. Peroxidase-conjugated secondary antibody was used for immunohistochemical analysis of CD31/PECAM. Bleaching of fluorescence was minimized by covering the slides with 90% glycerol and 10% PBS. The slides were incubated with stable 3,3′-diaminobenzidine for 10 to 20 minutes and then examined for the presence of CD31/PECAM. The sections were rinsed with distilled water, counterstained with Gill's hematoxylin for 1 minute, and mounted with Universal Mount (Research Genetics, Huntsville, Ala.).
To quantify microvessel density (MVD), areas containing higher numbers of tumor-associated blood vessels were identified at low microscopic power (100×). Vessels completely stained with anti-CD31 antibodies were counted in three random 0.04-mm^2 fields per slide at 200× magnification.

[2] = tested on: OSC19-luciferase xenografts; assay: Orthotopic nude mouse model of oral tongue SCC, OSC19-luciferase; type: in vivo, nude mice
HN5 cell line = assay: MTT cell proliferation assay; type: cell-based; details: Homo sapiens, 72 h, 3-day incubation, read-out: IC50 (growth inhibition, MTT)
Procedure: (§1) To test the ability of paclitaxel and HA-paclitaxel to inhibit the proliferation of all human squamous cancer cell lines in vitro, a 3-(4,5-dimethylthiazol-2-yl)-2,5-diphenyltetrazolium bromide (MTT) assay was used. Two thousand cells per well were grown in DMEM medium supplemented with 10% FBS in 96-well tissue culture plates. After 24 h, the cells were treated with various concentrations of paclitaxel or HA-paclitaxel in DMEM medium supplemented with 2% FBS. To measure the number of metabolically active cells after a 3-day incubation period, an MTT assay as measured by a 96-well microtiter plate reader (MR-5000; Dynatech Laboratories Inc, Chantilly, Va.) at an optical density of 570 nm was used.
(§2) Quantified results of PCNA, CD31, and tumor volume were compared with Kruskal-Wallis and Wilcoxon rank-sum test, as appropriate. Survival was analyzed with the Kaplan-Meier method. Differences between the treatment and control groups were compared with the log-rank test. A two-tailed p<0.05 was considered significant.

[3] = tested on: OSC19-luciferase cell line; assay: MTT cell proliferation assay; type: cell-based; details: Homo sapiens, 72 h, 3-day incubation, read-out: IC50 (growth inhibition, MTT)
Procedure: as §1, §2

NMP-1 xenografts = assay: NMP-1 orthotopic (intraperitoneal) ovarian carcinoma xenograft, survival and MR imaging; type: in vivo, nude mice; details: for T/C / Mean Day of Survival/Sacrifice: qd7 × 3 i.p. from Day 7; for Mean Day of Survival/Sacrifice: mean ± SEM
Procedure: On Day 0, about 1×10^7 viable NMP-1 cells were injected into the peritoneal cavities of groups of 6 to 9-week-old female nude mice (Harlan Sprague Dawley, Indianapolis, Ind.). Five or more mice per experimental group were used as the basis for statistical analyses. Administration of drugs was initiated 1 week later (Day 7). […] NMP-1-implanted mice develop marked ascites as one of the earliest clinical signs of peritoneal tumor and before other aspects of tumor progression are apparent; ascitic fluid was repeatedly removed at intervals from mice, beginning around the fourth week. […] For any tumor-bearing mice that succumbed between daily observations and before the opportunity to sacrifice them, the day of death was considered to be the day before the date they were discovered as deceased. The day of humane sacrifice/death was recorded for each mouse, and these values were compared among control and treatment groups by paired or unpaired Student's t-tests for the survival analyses.
MRI studies were conducted in the MDACC Small Animal Imaging Facility (SAIF). […] Klostergaard, J., et al., Magnetic Resonance Imaging-Based Prospective Detection of Intraperitoneal Human Ovarian Carcinoma Xenografts Treatment Response, Int J Gynecol Cancer, 2006, 16 Suppl 1:111-7. Respiratory-gated, T2-weighted (TE: 45.0 ms, TR: 1215.6 ms, 0.5 mm thickness, 0.3 mm space between images) coronal images were used for initial evaluation of tumor distribution and growth in these models; images of the abdomens of these mice were acquired using a Bruker 4.7 T, 40 cm Biospec MR scanner (Bruker Biospin USA, Billerica, Mass.).
In the NMP-1 studies, mice were held for survival endpoints. In the SKOV-3ip studies, tumor measurements were performed using the Image J program (National Institutes of Health, USA). Regions of interest (ROI) were drawn on each image that contained tumor and then multiplied by slice thickness to obtain the tumor volume. […] To avoid overestimation of tumor size, one half of the volume from the most dorsal and ventral images containing tumor were used in the volume analysis. Assuming a tumor density of 1 g/ml, tumor volumes (mm^3) were converted to weight (g) for analysis.

[4] = plasma; IP administration; data from Banzato et al.; cited from earlier work
HN5 xenografts = assay: Orthotopic nude mouse model of oral tongue SCC, HN5; type: in vivo, nude mice

Compound: CC(=O)O[C@H]1C(=O)[C@@]2(C)[C@H]([C@H](OC(=O)c3ccccc3)[C@]3(O)C[C@H](OC(=O)[C@H](O)[C@@H](NC(=O)c4ccccc4)c4ccccc4)C(C)=C1C3(C)C)[C@]1(OC(C)=O)CO[C@@H]1C[C@@H]2O [Taxol, Paclitaxel]
- Effect on microvessel density (MVD) [1]: no effect on MVD
- Median survival time ([2]; OSC19-luciferase, 3 weekly i.v. injections, control 30 days): 60 days
- Reduction of bioluminescence as opposed to control ([2]; OSC19-luciferase, one week after the last treatment): 86.5%
- Reduction of tumor growth ([2]; OSC19, one week after the last of 3 weekly i.v. treatments, HA-paclitaxel 120 mg/kg paclitaxel equivalent, paclitaxel 10 mg/kg): 64.2%
- IC50 (HN5 cell line): 4.58 nM
- IC50 [3]: 2.16 nM
- T/C (NMP-1 xenografts; 10 mg/kg): ~105
- Mean Day of Survival/Sacrifice (NMP-1 xenografts; 10 mg/kg): 32.6 ± 5.6 days
- T/C (NMP-1 xenografts; 15 mg/kg): ~120
- Mean Day of Survival/Sacrifice (NMP-1 xenografts; 15 mg/kg): 37.6 ± 9.3 days
- Activity by MR imaging and survival criteria (NMP-1 xenografts; multiple-dose regimens, 10 or 15 mg/kg): essentially inactive
- AUC [4]: 144 µg·h/mL
- Median survival time (HN5 xenografts; 3 weekly i.v. injections, control 26 days): 40 days
- Reduction of tumor growth (HN5 xenografts; one week after the last of 3 weekly i.v. treatments, HA-paclitaxel 120 mg/kg paclitaxel equivalent, paclitaxel 10 mg/kg): 63.8%

— patent US20100173865A1, “Anti-Cancer Agent-Hyaluronic Acid Conjugate Compositions and Methods” (priority 2007, published 2010)
